Columns and labels:
[1] = target: MMP12 (Homo sapiens (Human), UniProt P39900); experiment: In vitro fluorescence assay of MMP12 activity; assay type: biochemical
Excerpt: (§1) A continuous assay is used in which the substrate is a synthetic peptide containing a fluorescent group (7-methoxycoumarin, Mca), which is quenched by energy transfer to a 2,4-dinitrophenyl group. The substrate is the peptide Mca-PQGL-(3-[2,4-dinitrophenyl]-L-2,3-diaminopropionyl)-AR-OH. When the peptide is cleaved by MMP a large increase in fluorescence is observed. The source of the enzyme for this assay is full-length, recombinant, human pro-MMP-2 expressed in Chinese Hamster Ovary (CHO) cells that is subsequently activated by an organomercurial compound, 4-aminophenyl mercuric acetate (APMA). APMA is removed through a desalting column (MMP-2 Calbiochem® catalog number PF023). The assay buffer consists of 100 mM Tris-HCl (pH 7.5), 100 mM NaCl, 10 mM CaCl2 and 10 μM human serum albumin Each well of the 96-well plates consists of a 100 μL reaction mixture consisting of assay buffer, MMP (final concentration of 0.2 nM, prepared by diluting in assay buffer), and varied concentrations of inhibitor (prepared by serially diluting a given inhibitor in DMSO in a 96-well polypropylene plate using a 10 point or 11 point dilution scheme). The enzymatic reactions are initiated by adding the substrate to a final concentration of 20 μM. The final DMSO concentration in the assay is 1.0%. The plate is incubated for 2-4 hours at room temperature and substrate cleavage is determined at room temperature with a fluorescence plate reader (excitation filter 320 and emission filter 436) on a LJL Analyst® or a Wallac Envision®.
(§2) The data is analyzed by using ActivityBase® software programs vs. 5.3 using a 4 parameter fit model equation 205 from which relative IC50's are generated. Maximum signal is calculated from wells untreated by inhibitor but having enzyme, substrate and 1.0% DMSO. Minimum signal is calculated from wells having buffer only (no enzyme), substrate, and 1.0% DMSO.
(§3) Essentially the same procedure is used for the remaining MMP assays as the MMP-2 assay, above, or as known in the art. For example, for MMP-14, the enzyme source is MMP-14 (MT1-MMP) catalytic domain produced by activation of a recombinant soluble proform of the enzyme purified from the periplasm. It consists of amino acid residues Tyr^89 to Gly^265 of mature human MT1-MMP (Calbiochem® catalog number 475935). The final concentration of each well is 0.5 nM instead of 0.2 nM as in MMP-2 assay.

[2] = target: MMP3 (Homo sapiens (Human), UniProt P08254); experiment: In vitro fluorescence assay of MMP3 activity; assay type: biochemical
Sequence of MMP3 (P08254 100-477, species assumed): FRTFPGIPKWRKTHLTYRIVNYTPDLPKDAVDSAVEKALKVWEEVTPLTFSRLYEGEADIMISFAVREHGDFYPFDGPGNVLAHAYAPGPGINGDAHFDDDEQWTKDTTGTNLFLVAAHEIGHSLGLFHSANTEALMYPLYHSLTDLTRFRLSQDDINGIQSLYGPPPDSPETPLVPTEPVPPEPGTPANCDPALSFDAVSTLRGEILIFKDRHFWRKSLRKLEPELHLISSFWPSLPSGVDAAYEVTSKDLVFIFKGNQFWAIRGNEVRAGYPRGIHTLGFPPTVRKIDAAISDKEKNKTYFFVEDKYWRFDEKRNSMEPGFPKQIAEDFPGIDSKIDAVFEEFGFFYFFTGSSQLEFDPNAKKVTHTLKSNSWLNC
Excerpt: as §1, §2, §3

[3] = target: MMP8 (Homo sapiens (Human), UniProt P22894); experiment: In vitro fluorescence assay of MMP8 activity; assay type: biochemical
Sequence of MMP8 (P22894 101-467, species assumed): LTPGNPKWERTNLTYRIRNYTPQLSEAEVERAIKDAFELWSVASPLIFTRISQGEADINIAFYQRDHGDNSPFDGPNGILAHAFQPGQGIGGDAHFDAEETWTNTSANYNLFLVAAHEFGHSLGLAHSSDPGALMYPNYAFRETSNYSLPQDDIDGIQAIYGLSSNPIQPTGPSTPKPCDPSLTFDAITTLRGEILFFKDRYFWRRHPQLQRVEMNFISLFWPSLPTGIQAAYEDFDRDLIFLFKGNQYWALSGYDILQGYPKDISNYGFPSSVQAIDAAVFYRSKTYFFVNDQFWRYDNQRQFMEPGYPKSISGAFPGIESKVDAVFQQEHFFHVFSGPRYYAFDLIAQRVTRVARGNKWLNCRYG
Excerpt: as §1, §2, §3

[4] = target: MMP-2 (Homo sapiens (Human), UniProt P08253); experiment: In vitro fluorescence assay of MMP-2 activity; assay type: biochemical; conditions: read-out: MMP2 IC50
Sequence of MMP-2 (P08253 110-660): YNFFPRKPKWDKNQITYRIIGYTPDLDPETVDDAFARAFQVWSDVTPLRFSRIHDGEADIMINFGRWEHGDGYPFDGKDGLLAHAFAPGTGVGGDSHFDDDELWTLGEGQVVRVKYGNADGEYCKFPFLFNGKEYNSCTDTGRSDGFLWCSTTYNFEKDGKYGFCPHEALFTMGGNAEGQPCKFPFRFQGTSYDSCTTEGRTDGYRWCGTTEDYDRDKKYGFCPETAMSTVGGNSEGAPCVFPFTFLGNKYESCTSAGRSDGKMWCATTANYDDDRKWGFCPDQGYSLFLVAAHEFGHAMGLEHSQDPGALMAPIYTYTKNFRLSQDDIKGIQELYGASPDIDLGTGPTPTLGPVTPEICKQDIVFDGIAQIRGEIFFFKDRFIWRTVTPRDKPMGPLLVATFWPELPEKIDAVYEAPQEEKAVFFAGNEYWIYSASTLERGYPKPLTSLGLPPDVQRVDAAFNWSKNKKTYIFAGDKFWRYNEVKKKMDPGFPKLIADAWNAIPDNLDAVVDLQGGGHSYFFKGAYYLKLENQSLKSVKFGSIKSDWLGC
Excerpt: In Vitro Fluorescence Assay of MMP-2 Activity
as §1, §2

[5] = target: ADAMTS-4 (Homo sapiens (Human), UniProt O75173); experiment: ADAMTS-4 AlphaScreen assay; assay type: biochemical; conditions: buffer
Sequence of ADAMTS-4 (O75173 213-837, species assumed): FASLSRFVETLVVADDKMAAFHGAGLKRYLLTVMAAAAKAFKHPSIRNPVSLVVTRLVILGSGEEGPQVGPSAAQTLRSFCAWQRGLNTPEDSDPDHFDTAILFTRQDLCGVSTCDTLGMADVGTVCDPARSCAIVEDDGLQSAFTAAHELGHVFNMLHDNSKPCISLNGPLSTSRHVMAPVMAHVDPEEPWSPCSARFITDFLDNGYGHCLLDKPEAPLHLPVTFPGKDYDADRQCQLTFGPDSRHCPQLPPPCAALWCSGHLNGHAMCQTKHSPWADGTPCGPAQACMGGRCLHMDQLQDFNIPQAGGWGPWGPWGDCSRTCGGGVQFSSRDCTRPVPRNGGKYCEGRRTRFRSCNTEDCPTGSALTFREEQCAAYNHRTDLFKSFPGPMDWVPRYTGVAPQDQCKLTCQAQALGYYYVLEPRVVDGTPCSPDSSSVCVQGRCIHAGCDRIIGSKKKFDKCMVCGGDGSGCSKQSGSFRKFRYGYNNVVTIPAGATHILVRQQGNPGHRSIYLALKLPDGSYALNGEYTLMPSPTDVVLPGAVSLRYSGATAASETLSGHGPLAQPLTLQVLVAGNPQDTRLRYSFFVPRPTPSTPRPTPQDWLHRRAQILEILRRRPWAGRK
Experimental: ADAMTS-4 and ADAMTS-5 AlphaScreen Assay:
(§4) The plate is covered with aluminum foil tape and the binding is allowed to incubate overnight. The plate is then read on an AlphaScreen Fusion Alpha reader from Perkin Elmer. Data is analyzed using ActivityBase™ software (IDBS Alameda, Calif.). A similar assay is used with purified dog ADAMTS-4 enzyme.

[6] = target: MMP13 (Homo sapiens (Human), UniProt P45452); experiment: In vitro fluorescence assay of MMP13 activity; assay type: biochemical
Experimental: A continuous assay is used in which the substrate is a synthetic peptide containing a fluorescent group (7-methoxycoumarin, Mca), which is quenched by energy transfer to a 2,4-dinitrophenyl group. The substrate is the peptide Mca-PQGL-(3-[2,4-dinitrophenyl]-L-2,3-diaminopropionyl)-AR-OH. […] APMA is removed through a desalting column (MMP-2 Calbiochem® catalog number PF023). The assay buffer consists of 100 mM Tris-HCl (pH 7.5), 100 mM NaCl, 10 mM CaCl2 and 10 μM human serum albumin Each well of the 96-well plates consists of a 100 μL reaction mixture consisting of assay buffer, MMP (final concentration of 0.2 nM, prepared by diluting in assay buffer), and varied concentrations of inhibitor (prepared by serially diluting a given inhibitor in DMSO in a 96-well polypropylene plate using a 10 point or 11 point dilution scheme). The enzymatic reactions are initiated by adding the substrate to a final concentration of 20 μM. The final DMSO concentration in the assay is 1.0%.
as §2, §3

[7] = target: MMP1 (Homo sapiens (Human), UniProt P03956); experiment: In vitro fluorescence assay of MMP1 activity; assay type: biochemical
Sequence of MMP1 (P03956 100-469, species assumed): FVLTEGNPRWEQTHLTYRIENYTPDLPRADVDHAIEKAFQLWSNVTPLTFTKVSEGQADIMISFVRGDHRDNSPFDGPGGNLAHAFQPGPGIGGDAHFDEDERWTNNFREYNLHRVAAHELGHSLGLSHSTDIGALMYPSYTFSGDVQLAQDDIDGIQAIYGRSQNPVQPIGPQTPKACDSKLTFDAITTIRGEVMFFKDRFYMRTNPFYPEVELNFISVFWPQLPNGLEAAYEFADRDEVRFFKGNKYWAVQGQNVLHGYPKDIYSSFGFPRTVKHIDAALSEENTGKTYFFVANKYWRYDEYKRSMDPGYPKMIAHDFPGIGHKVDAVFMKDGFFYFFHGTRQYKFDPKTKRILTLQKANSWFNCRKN
Excerpt: as §1, §2, §3

[8] = target: MMP7 (Homo sapiens (Human), UniProt P09237); experiment: In vitro fluorescence assay of MMP7 activity; assay type: biochemical
Sequence of MMP7 (P09237 95-267, species assumed): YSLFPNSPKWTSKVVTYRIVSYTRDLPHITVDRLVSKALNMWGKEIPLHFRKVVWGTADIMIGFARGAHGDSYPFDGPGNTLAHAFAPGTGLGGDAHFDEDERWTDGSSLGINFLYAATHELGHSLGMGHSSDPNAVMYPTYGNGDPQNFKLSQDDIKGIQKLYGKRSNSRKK
Excerpt: as §1, §2, §3

[9] = target: MMP-14 (MT1-MMP) catalytic domain (Homo sapiens (Human), UniProt P50281); experiment: In vitro fluorescence assay of MMP-14 activity; assay type: biochemical; conditions: read-out: MMP14 IC50
Excerpt: as §1, §2, §3

[10] = target: MMP9 (Homo sapiens (Human), UniProt P14780); experiment: In vitro fluorescence assay of MMP9 activity; assay type: biochemical
Sequence of MMP9 (P14780 94-707, species assumed): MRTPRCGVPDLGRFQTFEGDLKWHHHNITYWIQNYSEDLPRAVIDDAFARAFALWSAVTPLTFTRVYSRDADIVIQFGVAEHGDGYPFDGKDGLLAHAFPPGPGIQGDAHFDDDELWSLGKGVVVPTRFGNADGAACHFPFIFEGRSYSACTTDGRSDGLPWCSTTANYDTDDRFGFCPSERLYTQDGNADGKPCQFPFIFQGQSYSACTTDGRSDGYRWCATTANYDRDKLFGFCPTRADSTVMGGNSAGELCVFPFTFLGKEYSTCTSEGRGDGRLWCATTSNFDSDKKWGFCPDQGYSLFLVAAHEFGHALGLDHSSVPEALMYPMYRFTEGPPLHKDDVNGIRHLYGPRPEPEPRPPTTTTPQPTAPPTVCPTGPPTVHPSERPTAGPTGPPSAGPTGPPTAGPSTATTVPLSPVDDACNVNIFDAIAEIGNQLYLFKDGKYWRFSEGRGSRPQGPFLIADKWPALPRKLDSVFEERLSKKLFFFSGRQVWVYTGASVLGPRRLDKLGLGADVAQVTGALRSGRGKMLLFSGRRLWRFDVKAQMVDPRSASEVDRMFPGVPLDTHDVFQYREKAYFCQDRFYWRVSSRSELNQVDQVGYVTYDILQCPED
Excerpt: as §1, §2, §3

[11] = system: aggrecanase-cleaved fragments of aggrecan (NITEGE) in synovial lavage; experiment: MIA injection PD model in rats; assay type: in vivo, Lewis rats; conditions: twice a day, rat
Experimental: MIA Injection PD Model in Rats
The assay as described in Swearingen et al., Osteoarthritis and Cartilage 18 (2010) 1159-1166, may be employed. MIA (Sigma, catalog #I2512, sodium salt) is prepared fresh on the day of use at 3 mg in 50 ul sterile 0.9% saline. 7-8-week-old male Lewis rats are anesthetized and injected intra-articularly with MIA into the right knee (to induce endogenous aggrecanase activity and the release of aggrecan fragments into the synovial fluid) and saline in the left (contralateral) knee on day 0. […] The synovial lavage is assayed for aggrecanase-cleaved fragments of aggrecan using the NITEGE sandwich ELISA. The amount of aggrecan fragments present in the synovial lavage is determined based on a standard curve generated with aggrecanase-digested rat aggrecan. Statistical analysis is performed using Dunnett's test. Sandwich ELISA assay: For the NITEGE ELISA, the a-NITEGE monoclonal antibody is immobilized on white high binding ELISA plates (Nunc) overnight at 4 C. Following blocking, rat synovial fluid lavage samples are added to the plate and fragments with a C-terminal NITEGE sequence are captured. The captured fragments are detected using the HRP-conjugated a-HABR monoclonal antibody. The ELISA signal is measured using the Supersignal ELISA femto maximum sensitivity substrate (Pierce) and read on a Victor luminometer. The amount of aggrecan fragments present in the sample is determined based on a standard curve generated with aggrecanase-digested rat chondrosarcoma aggrecan (850 mg/ml stock diluted in antibody dilution buffer).

[12] = target: T1, dog ADAMTS-4 (Canis lupus familiaris, UniProt A0A8I3Q3A2); experiment: Dog ADAMTS-4 AlphaScreen assay; assay type: biochemical; conditions: purified dog ADAMTS-4 enzyme
T1 sequence (A0A8I3Q3A2 1-992): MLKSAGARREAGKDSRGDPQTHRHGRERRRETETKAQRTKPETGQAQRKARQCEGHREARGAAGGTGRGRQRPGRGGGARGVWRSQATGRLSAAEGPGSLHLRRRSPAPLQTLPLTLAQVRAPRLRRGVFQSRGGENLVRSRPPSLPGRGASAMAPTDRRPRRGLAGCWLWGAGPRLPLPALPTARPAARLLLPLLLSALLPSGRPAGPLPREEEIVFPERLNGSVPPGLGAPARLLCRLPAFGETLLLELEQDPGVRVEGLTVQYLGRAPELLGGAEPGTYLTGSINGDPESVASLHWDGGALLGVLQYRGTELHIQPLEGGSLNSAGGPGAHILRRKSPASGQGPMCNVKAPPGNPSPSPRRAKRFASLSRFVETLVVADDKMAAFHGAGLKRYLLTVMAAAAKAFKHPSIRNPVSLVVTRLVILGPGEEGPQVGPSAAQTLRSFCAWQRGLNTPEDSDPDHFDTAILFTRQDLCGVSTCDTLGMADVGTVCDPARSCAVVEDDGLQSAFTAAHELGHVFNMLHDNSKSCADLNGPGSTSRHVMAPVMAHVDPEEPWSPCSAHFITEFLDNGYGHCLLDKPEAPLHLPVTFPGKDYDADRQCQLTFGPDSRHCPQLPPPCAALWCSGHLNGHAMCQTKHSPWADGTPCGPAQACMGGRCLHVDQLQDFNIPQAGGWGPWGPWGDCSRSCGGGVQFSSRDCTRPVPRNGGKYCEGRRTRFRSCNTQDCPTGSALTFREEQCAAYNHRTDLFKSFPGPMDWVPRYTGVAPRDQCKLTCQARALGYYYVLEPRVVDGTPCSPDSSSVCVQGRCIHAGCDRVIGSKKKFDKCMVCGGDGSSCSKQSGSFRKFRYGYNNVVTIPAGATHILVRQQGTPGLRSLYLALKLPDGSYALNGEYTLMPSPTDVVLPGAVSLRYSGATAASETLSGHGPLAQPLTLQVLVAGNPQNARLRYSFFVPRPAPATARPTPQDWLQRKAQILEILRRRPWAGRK
Experimental: as §4

[13] = target: T1, dog ADAMTS-4; experiment: Dog plasma shift AlphaScreen assay; assay type: biochemical; conditions: dog ADAMTS-4 in 25% dog plasma
Experimental: Rat and Dog Plasma Shift AlphaScreen Assay
The assay is completed in the same manner using 10 nM ADAMTS-5 instead of 2.1 nM. A similar assay is used with dog ADAMTS-4 in the presence of 25% dog plasma.

[14] = system: plasma ARGN; experiment: Plasma biomarker ARGN in osteoarthritis dogs; assay type: in vivo, Beagle dogs; conditions: OA dogs
Excerpt: Study of the Plasma Biomarker ARGN in Osteoarthritis Dogs
The objective of this study is to determine the plasma biomarker ARGN response in osteoarthritic (OA) dogs to a compound of the invention across a range of doses following daily oral administration for 21 days. Sixteen (16) adult laboratory Beagle dogs ≧8 years of age with radiographic evidence of OA in the hip joint(s) and 4 age matched control Beagle dogs without OA are enrolled in the study.
(§5) Blood samples for baseline plasma ARGN concentrations are collected from all dogs on 30, 28, and 26 days to prior to beginning dose administration. […] The 4 age matched control dogs without OA all are assigned to the placebo treatment group.

[15] = Example 2 compound plasma concentration in osteoarthritis dogs (LC-MS/MS); assay type: in vivo, Beagle dogs
Excerpt: as §5

Sequence of MMP12 (P39900 106-470, species assumed): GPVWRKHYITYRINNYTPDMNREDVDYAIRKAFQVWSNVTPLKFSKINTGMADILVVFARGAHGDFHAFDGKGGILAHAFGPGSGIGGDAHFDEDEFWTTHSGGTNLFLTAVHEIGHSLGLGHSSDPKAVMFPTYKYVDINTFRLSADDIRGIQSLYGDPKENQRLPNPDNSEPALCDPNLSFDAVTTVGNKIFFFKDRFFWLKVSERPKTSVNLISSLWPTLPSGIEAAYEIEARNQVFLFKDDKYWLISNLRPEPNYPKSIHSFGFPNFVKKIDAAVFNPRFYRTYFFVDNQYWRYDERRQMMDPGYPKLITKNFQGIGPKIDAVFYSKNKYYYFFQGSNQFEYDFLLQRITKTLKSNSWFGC

Structure (SMILES)	IC50 [1]	IC50 [2]	IC50 [3]	IC50 [4]	IC50 [5]	IC50 [6]	IC50 [7]	IC50 [8]	IC50 [9]	IC50 [10]	further results
CC[C@H](Cc1ccc(C(F)(F)F)cc1)C(=O)NC[C@@]1(C2CC2)NC(=O)NC1=O [Example 2, (2R)—N-[[(4R)-4-cyclopropyl-2,5-dioxo-imidazolidin-4-yl]methyl]-2-[[4-(trifluoromethyl)phenyl]methyl]butanamide]	26 nM	15.3 µM	< 5.1 nM	0.704 µM	2 nM	4.19 µM	0.897 µM	> 100 µM	7.99 µM	0.439 µM	IC50 [12]: 1 nM; IC50 [13]: 326 nM; mean Day 21 inhibition of plasma ARGN concentrations ([14]; 0.1 mg/kg daily oral): 33.8%; mean Day 21 inhibition of plasma ARGN concentrations ([14]; 1 mg/kg daily oral): 70.7%; mean Day 21 inhibition of plasma ARGN concentrations ([14]; 10 mg/kg daily oral): 80.3%; plasma concentrations versus dosage ([15]; 0.1, 1, 10 mg/kg daily oral): increase with dosage in a sub-proportional manner; steady-state trough concentrations ([15]; daily oral dosing): rapidly achieved
CC(C)[C@H](Cc1ccc(C(F)(F)F)cc1)C(=O)NC[C@@]1(C2CC2)NC(=O)NC1=O [Example 4, (2S)—N-[[(4R)-4-cyclopropyl-2,5-dioxo-imidazolidin-4-yl]methyl]-3-methyl-2-[[4-(trifluoromethyl)phenyl]methyl]butanamide]	3360 nM	> 100 µM	5220 nM	> 100 µM	14 nM	> 100 µM	56.8 µM	> 100 µM	> 100 µM	> 100 µM	–

More lines, main results first:

IC50 [1]	IC50 [2]	IC50 [3]	IC50 [4]	IC50 [5]	IC50 [6]	IC50 [7]	IC50 [8]	IC50 [9]	IC50 [10]	Structure (SMILES)	further results
71 nM	13.2 µM	54 nM	4.65 µM	7 nM	4.81 µM	4.55 µM	> 100 µM	14.9 µM	7.59 µM	CC(C)(Cc1ccc(C(F)(F)F)cc1)C(=O)NC[C@@]1(C2CC2)NC(=O)NC1=O [Example 5, N-[[(4R)-4-cyclopropyl-2,5-dioxoimidazolidin-4-yl]methyl]-2,2-dimethyl-3-[4-(trifluoromethyl)phenyl]propanamide]	–
9 nM	2.85 µM	17.9 nM	1.75 µM	–	1.11 µM	–	> 100 µM	3.89 µM	12 µM	C[C@H](Cc1ccc(C(F)(F)F)cc1)C(=O)NC[C@@]1(C2CC2)NC(=O)NC1=O [Example 1, (2R)—N-[[(4R)-4-cyclopropyl-2,5-dioxo-imidazolidin-4-yl]methyl]-2-methyl-3-[4-(trifluoromethyl)phenyl]propanamide]	% Inhibition ([11]; 10 MPK oral): 41.3%; MIA (aggrecan fragments in synovial lavage of MIA knee) ([11]; 10 MPK oral): 15.87; % Inhibition ([11]; 30 MPK oral): 48.2%; MIA (aggrecan fragments in synovial lavage of MIA knee) ([11]; 30 MPK oral): 14.00; % Inhibition ([11]; 100 MPK oral): 70.2%; MIA (aggrecan fragments in synovial lavage of MIA knee) ([11]; 100 MPK oral): 8.06
268 nM	99.7 µM	804 nM	35 µM	–	47 µM	39.2 µM	> 100 µM	50.2 µM	> 100 µM	O=C1NC(=O)[C@](CNC(=O)[C@@H](Cc2ccc(C(F)(F)F)cc2)C2CC2)(C2CC2)N1 [Example 3, (2S)-2-cyclopropyl-N-[[(4R)-4-cyclopropyl-2,5-dioxo-imidazolidin-4-yl]methyl]-3-[4-(trifluoromethyl)phenyl]propanamide]	–
